Measured values taken from patent US20230277698A1, “SILICON-CONTAINING LIGAND COMPOUNDS” (Technische Universität München, priority 2020, published 2023).

What was measured:
[1] = test system: LNCaP tumor-bearing CB17-SCID mice; assay: Biodistribution studies 24 h p.i.; assay type: in vivo; conditions: 177Lu-labelled, mean±SD, n=4-5; for biodistribution: tumor: LNCaP xenograft; for biodistribution: blood: i.v. tail vein
Description: All animal experiments were conducted in accordance with general animal welfare regulations in Germany (German animal protection act, as amended on 18 May 2018, Art. 141 G v. 29.3.2017|626, approval no. 55.2-1-54-2532-71-13) and the institutional guidelines for the care and use of animals. To establish tumor xenografts, LNCaP cells (approx. 10^7 cells) were suspended in 200 μL of a 1:1 mixture (v/v) of DMEM F-12 and Matrigel (BD Biosciences, Germany), and inoculated subcutaneously onto the right shoulder of 6-8 weeks old CB17-SCID mice (Charles River, Sulzfeld, Germany). Mice were used for experiments when tumors had grown to a diameter of 5-10 mm (3-6 weeks after inoculation).
Approximately 5-10 MBq (0.1-0.2 nmol) of the radioactive-labelled PSMA inhibitors were injected into the tail vein of LNCaP tumor-bearing male CB-17 SCID mice and sacrificed after 24 h post injection. Selected organs were removed, weighted and measured in a γ-counter.
FIG. 10 and the following table show the biodistribution data 24 h p.i. of ^177Lu-labeled compounds in LNCaP tumor-bearing CB17-SCID mice. Data are expressed as mean±SD (n=4-5).

PSMA = target: T1, PSMA (Homo sapiens, UniProt Q04609); assay: PSMA affinity (IC50), competition with ([125I]I-BA)KuE on LNCaP cells; conditions: natLu complexes; LNCaP cells 150000 cells/well, ([125I]I-BA)KuE c=0.2 nM, 1 h, 4 °C, HBSS+1% BSA; mean±SD, n=3; read-out: IC50 (binding affinity to PSMA)
T1 construct: PSMA-positive LNCAP cells (300265; Cell Lines Service, Eppelheim, Germany); host or cells: LNCaP cells
Description: PSMA-positive LNCAP cells (300265; Cell Lines Service, Eppelheim, Germany) were cultivated in Dulbecco modified Eagle medium/Nutrition Mixture F-12 with Glutamax (1:1) (DMEM-F12, Biochrom, Berlin, Germany) supplemented with fetal bovine serum (10%, FBS Zellkultur, Berlin, Germany) and kept at 37° C. in a humidified CO2 atmosphere (5%). A mixture of trypsin and EDTA (0.05%, 0.02%) in PBS (Biochrom) was used in order to harvest cells. Cells were counted with a Neubauer hemocytometer (Paul Marienfeld, Lauda-Königshofen, Germany).
In the case of metal-complexed ligands, the crude reaction mixture was diluted analogously, without further purification. Cells were harvested 24±2 hours prior to the experiment and seeded in 24-well plates (1.5×10^5 cells in 1 mL/well). After removal of the culture medium, the cells were carefully washed with 500 μL of HBSS, supplemented with 1% bovine serum albumin (BSA, Biowest, Nuaillé, France) and left 15 min on ice for equilibration in 200 μL HBSS (1% BSA). Next, 25 μL per well of solutions, containing either HBSS (1% BSA, control) or the respective ligand in increasing concentration ([…] in HBSS) were added with subsequent addition of 25 μL of [^125I]-BA-KuE (2.0 nM) in HBSS (1% BSA). After incubation on ice for 60 min, the experiment was terminated by removal of the medium and consecutive rinsing with 200 μL of HBSS (1% BSA). The media of both steps were combined in one fraction and represent the amount of free radioligand. Afterwards, the cells were lysed with 250 μL of 1 M aqueous NaOH for at least 10 min. After a washing step (250 μL of 1 M NaOH), both fractions, representing the amount of bound ligand, were united. Quantification of all collected fractions was accomplished in a γ-counter. PSMA-affinity determinations were carried out at least three times per ligand.
Affinities were determined using LNCaP cells (150000 cells/well) and ([^125I]I-BA)KuE (c=0.2 nM) as the radioligand (1 h, 4° C., HBSS+1% BSA). Data are expressed as mean±SD (n=3).

T1 sequence (Q04609 whole entry): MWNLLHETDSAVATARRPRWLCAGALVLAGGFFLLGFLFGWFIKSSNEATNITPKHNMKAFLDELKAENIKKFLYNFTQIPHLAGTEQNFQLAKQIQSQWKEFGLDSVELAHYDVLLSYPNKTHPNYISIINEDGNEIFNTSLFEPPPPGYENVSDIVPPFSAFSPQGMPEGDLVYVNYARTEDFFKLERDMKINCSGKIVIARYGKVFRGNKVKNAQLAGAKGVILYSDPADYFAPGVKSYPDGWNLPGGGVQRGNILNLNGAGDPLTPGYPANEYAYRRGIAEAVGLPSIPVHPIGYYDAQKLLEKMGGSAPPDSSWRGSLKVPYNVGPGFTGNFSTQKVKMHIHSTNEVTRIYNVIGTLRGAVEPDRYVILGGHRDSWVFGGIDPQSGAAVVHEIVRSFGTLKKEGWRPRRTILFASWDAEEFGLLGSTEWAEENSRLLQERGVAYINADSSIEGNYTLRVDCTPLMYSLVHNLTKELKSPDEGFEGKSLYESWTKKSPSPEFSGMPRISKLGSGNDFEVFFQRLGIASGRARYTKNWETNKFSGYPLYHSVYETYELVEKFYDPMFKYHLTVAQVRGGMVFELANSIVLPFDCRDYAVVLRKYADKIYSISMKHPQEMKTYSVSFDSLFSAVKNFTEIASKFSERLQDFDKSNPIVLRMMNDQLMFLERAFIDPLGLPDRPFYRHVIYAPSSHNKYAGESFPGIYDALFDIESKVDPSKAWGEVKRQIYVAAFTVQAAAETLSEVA

| SMILES | biodistribution: tumor [1] [% ID/g] | biodistribution: blood [1] [% ID/g] | biodistribution: adrenals [1] [% ID/g] | biodistribution: bone [1] [% ID/g] | biodistribution: heart [1] [% ID/g] | biodistribution: intestine [1] [% ID/g] | biodistribution: kidneys [1] [% ID/g] | biodistribution: liver [1] [% ID/g] | biodistribution: lung [1] [% ID/g] | biodistribution: muscle [1] [% ID/g] | biodistribution: pancreas [1] [% ID/g] | biodistribution: parotis [1] [% ID/g] | biodistribution: spleen [1] [% ID/g] | biodistribution: stomach [1] [% ID/g] | biodistribution: submandibularis [1] [% ID/g] | IC50 (PSMA) [nM] |
| --- | --- | --- | --- | --- | --- | --- | --- | --- | --- | --- | --- | --- | --- | --- | --- | --- |
| CC(C)(C)[Si](O)(c1ccc(C(=O)N[C@H](CCC(=O)NC[C@@H](NC(=O)CC[C@@H](C(=O)O)N2CCN(CC(=O)O)CCN(CC(=O)O)CCN(CC(=O)O)CC2)C(=O)NCCCCCC(=O)NCCC[C@@H](NC(=O)CC[C@H](NC(=O)N[C@@H](CCC(=O)O)C(=O)O)C(=O)O)C(=O)O)C(=O)O)cc1)C(C)(C)C [P105-SiOH] | 6.3 ± 2.1 | 0.004 ± 0.003 | 0.12 ± 0.01 | 0.02 ± 0.01 | 0.01 ± 0.01 | 0.08 ± 0.05 | 4.2 ± 2.5 | 0.37 ± 0.07 | 0.04 ± 0.01 | 0.004 ± 0.001 | 0.01 ± 0.01 | 0.07 ± 0.03 | 0.31 ± 0.10 | 0.02 ± 0.01 | 0.03 ± 0.01 | 9.8 ± 0.4 |
| CC(C)(C)[Si](O)(c1ccc(C(=O)NC[C@@H](NC(=O)CC[C@@H](C(=O)O)N2CCN(CC(=O)O)CCN(CC(=O)O)CCN(CC(=O)O)CC2)C(=O)N[C@H](CO)C(=O)NCCC(=O)NCCC(=O)NCCC[C@@H](NC(=O)CC[C@H](NC(=O)N[C@@H](CCC(=O)O)C(=O)O)C(=O)O)C(=O)O)cc1)C(C)(C)C [C007-SiOH] | 5.4 ± 0.8 | 0.003 ± 0.001 | 0.20 ± 0.01 | 0.02 ± 0.01 | 0.02 ± 0.01 | 0.13 ± 0.08 | 3.5 ± 1.4 | 0.40 ± 0.13 | 0.04 ± 0.01 | 0.004 ± 0.001 | 0.01 ± 0.01 | 0.06 ± 0.03 | 0.40 ± 0.10 | 0.04 ± 0.01 | 0.03 ± 0.01 | 7.1 ± 0.9 |
